Assays:
[1] = Aqueous solubility of compound at pH 7; format: physicochemical
[2] = Prodrug activation in human intestinal S9 fraction assessed as S-(-)-nadifloxacin release measured after 90 mins by LC-MS/MS analysis; format: subcellular, Intestine; conditions: s9, 1.5 h
[3] = Prodrug activation in human liver S9 fraction assessed as S-(-)-nadifloxacin release measured after 30 to 60 mins by LC-MS/MS analysis; format: subcellular; conditions: time 30-60 min
[4] = Prodrug activation in human whole blood assessed as S-(-)-nadifloxacin release measured after 30 to 60 mins by LC-MS/MS analysis; format: tissue-based; conditions: time 30-60 min

C[C@H]1CCc2c(N3CCC(O)CC3)c(F)cc3c(=O)c(C(=O)O)cn1c23.N=C(N)NCCC[C@H](N)C(=O)O.O.O.O.O
solubility [1]: < 1 mg/mL

CC(C)[C@H](N)C(=O)OC1CCN(c2c(F)cc3c(=O)c(C(=O)O)cn4c3c2CC[C@@H]4C)CC1
solubility [1]: > 200 mg/mL

CS(=O)(=O)O.C[C@H](N)C(=O)OC1CCN(c2c(F)cc3c(=O)c(C(=O)O)cn4c3c2CC[C@@H]4C)CC1
solubility [1]: < 1 mg/mL | Drug metabolism [2]: Metabolite_Detected | Drug metabolism [3]: Metabolite_Detected | Drug metabolism [4]: Metabolite_Detected

CC(C)[C@H](N)C(=O)OC1CCN(c2c(F)cc3c(=O)c(C(=O)O)cn4c3c2CC[C@@H]4C)CC1.CS(=O)(=O)O
solubility [1]: > 200 mg/mL

— ChEMBL document CHEMBL5029180, “Design and synthesis of an oral prodrug alalevonadifloxacin for the treatment of MRSA infection” (Bioorg Med Chem Lett, 2021)
